Experimental data published in US20180177849A1, “Therapeutic Uses of Elsiglutide” (HELSINN HEALTHCARE SA, priority 2015, published 2018).

What was measured:
[1] = enzymatic degradation by DPP IV in addition to renal clearance; cited from earlier work
Fischer rats [2] = test: Complete blood cell count (CBC) analysis of peripheral blood; assay type: in vivo, rat
Experimental: 8 to 12-week-old female Fischer 344/N rats (body weight 160-200 g) were obtained from Harlan Sprague Dawley Inc. (Indianapolis, Ind.).
Irinotecan was purchased as a ready-to-use formulation solution at a concentration of 20 mg/ml (100 mg in a 5 ml vial). For a rat of 150-200 g, an administration up to 2 ml solution (dose of 200 mg/kg/d×3) was required.
(§1) Elsiglutide was administered by subcutaneous (S.C) route at 1.8 mg/kg/day once a day for 4 days. Three doses were administered 30 minutes prior to each daily intravenous (I.V) dose of irinotecan. Only the fourth dose of elsiglutide was administered 24 hours after the last dose of irinotecan. Irinotecan was administered by intravenous (I.V) injection at the maximum tolerated and therapeutic dose, 100, 150, 200 mg/kg/day for 3 days.
Hematological (CBC) Analysis • Complete blood cell count (CBC) analysis (days 0, 4, and 9) • From peripheral blood 14 markers, WBC (differential: neutrophils, lymphocytes, eosinophils, monocytes, basophils) and RDW-SD, RBC, HGB, HCT, MCV, MCH, MCHC, and Platelets were analyzed.
The statistical analysis of complete blood cells (CBC) results was carried out. The differences between the mean values in the different treatment groups were analyzed for significance.
(§2) Treatment groups and time when specific acquisition of tissues was obtained are outlined below. Fischer Rats (Female), weighing 150 to 180 g (8-12 weeks) were utilized. • Control, histology, d 9 and CBC, baseline, day 4 and day 9 • Control vehicle, histology, d 9 and CBC baseline, d 4 and d 9 • Irinotecan 100 mg/kg/d×3, I.V., histology, d 9 and CBC, baseline, d 4 and d 9 • Irinotecan 150 mg/kg/d×3, I.V., histology, d 9 and CBC, baseline, d 4 and d 9, and CBC, baseline, d 4 and d 9 • Irinotecan 200 mg/kg/d×3, I.V., histology 9, and CBC, d 4 and d 9 • Elsiglutide 1.8 mg/kg/d×4, S.C., histology, d 9 and CBC, baseline, d 4 and d 9 • CBC, baseline, d 4 and d 9 • Elsiglutide 1.8 mg/d×4, S.C+Irinotecan 150 mg/kg/d×3, I.V, histology, d 9, and CBD baseline, d 4 and d9 • Elsiglutide 1.8 mg/d×4, S.C.+Irinotecan 200 mg/kg/d×3, I.V, histology, d 9, and CBC d 4 and d 9 Each treatment groups consisted of 10 rats for histology of bone marrow, spleen and peripheral blood analysis, and for survivors. Evaluation of peripheral blood was carried out on day zero (0), four (4) and day nine (9), bone marrow and spleen analysis after (necropsy) was carried out on day nine (9).

[3] = tested on: rats bearing colon tumors and xenografts bearing human colon carcinoma, HCT8 and HT-29; test: Antitumor activity in tumor-bearing rodents; assay type: in vivo; settings: 5-FU/irinotecan alone
Experimental: (§3) Studies were carried out in normal rats, rats bearing colon tumors and xenografts bearing human colon carcinoma, HCT8 and HT-29. Studies were carried out to test the hypothesis that elsiglutide offers selective protection against 5-Fluorouvacil-(5-FU) and irinotecan-induced toxicities and potentially enhances their antitumor activity. Elsiglutide was administered subcutaneously at non-toxic but therapeutically-effective dose of 1.8 mg/kg/day daily for 4 days, 30 min prior to each 5-FU/irinotecan dose. The tested doses of 5-FU were 100 mg/kg (MTD) and 200 mg/kg, and the doses of irinotecan were 100 mg/kg (MTD) and 200 mg/kg, either daily ×3 or weekly ×4.

spleen of Fischer rats = test: Histopathological evaluation of spleen; assay type: in vivo, rat; settings: Group 8, irinotecan 200 mg/kg i.v.; 5 dead animals
Experimental: (§4) The spleen and bone marrow of sternum of untreated Fischer rats and rats treated with irinotecan with 100, 150 and 200 mg/kg/d×3 alone and in combination with Elsiglutide (1.8 mg/kg/d×4) were examined histologically.
(§5) Histologic analysis using sternum bone marrow and spleen were carried out on day 9 (6 days after the administration of the last irinotecan dose on day 3). Bone marrow and spleen specimens were fixed in buffered formalin (10%) for 48 hours. The entire sternum and spleen were removed during autopsy at the end of the experiments on day 9. The samples were put in 10% buffered formalin for 48 hours in order to get appropriate fixation. After that the sternum was decalcified in a Rapid Decalcifier (RDO) from Apex Engineering Products Corporation (Aurora, Ill., USA) for 17 minutes when the sternum could be bent easily with fingers. When decalcification was complete, samples were taken out of solution and put under cold running water for 60 minutes to remove the decalcification solution containing hydrochloric acid as an active ingredient. Then the decalcified bone marrow and spleen specimen were processed, embedded in paraffin, cut (5 u) and stained conventionally with hematoxylin and eosin (HE). The HE stained slides were used for general orientation and evaluation under light microscope using various magnifications. […]

[4] = Protection against 5-FU- and irinotecan-induced toxicities; parameters: species or system mice and rats; settings: in vivo; daily ×3 or weekly ×4
Experimental: as §3

[5] = tested on: bone marrow of rat sternum; test: Histopathological evaluation of sternum bone marrow; assay type: in vivo; settings: Group 8, irinotecan 200 mg/kg i.v.; 5 dead animals
Experimental: as §4, §5

Fischer rats [6] = test: Survival / drug induced lethality; assay type: in vivo, rat; settings: for rats died because of toxicity: days 6 and 7
Experimental: as §1
10 rats were assessed for survival up to 4 weeks after treatments. During the study, the kinetics of drug induced toxicities in animals (weight loss/gain, stomatitis, lethality were monitored daily during the first 2 weeks then twice a week thereafter up to 4 weeks in the survival phase. At the end of the survival phase the rats were sacrificed.
as §2

[7] = irinotecan 200 mg/kg/day × 3, 5 dead rats, day 6 and day 7

Glucagon-like-peptide-2 [GLP-2(1-33)]
half-life [1]: about 7 minutes

CCc1c2c(nc3ccc(OC(=O)N4CCC(N5CCCCC5)CC4)cc13)-c1cc3c(c(=O)n1C2)COC(=O)[C@]3(O)CC [Irinotecan]
Platelet/Group (Fischer rats [2]; FIG. 1, Day 4): did not change
RBC/Group (Fischer rats [2]; FIG. 1, Day 4): did not change
WBC/group (Fischer rats [2]; FIG. 1, Day 4, after each dose of irinotecan): decreased
WBC/group (Fischer rats [2]; FIG. 1, Day 9, irinotecan alone treated group): did not reach the normal level
Platelet/Group count (Fischer rats [2]; FIG. 1, after 200 mg/kg irinotecan): decreased
Eosinophils Mean Value (Fischer rats [2]; [7]): 0.42
Lymphocytes Mean Value (Fischer rats [2]; [7]): 1.55
Monocytes Mean Value (Fischer rats [2]; [7]): 0.05
WBC Mean Value (Fischer rats [2]; [7]): 2.18 10^3/µL
MCV Mean Value (Fischer rats [2]; irinotecan 200 mg/kg/day × 3, 5 dead rats, day 6 and day 7, in fL (unit assumed)): 47.96
MCHC Mean Value (Fischer rats [2]; irinotecan 200 mg/kg/day × 3, 5 dead rats, day 6 and day 7, in g/dL (unit assumed)): 36.52
overall tumor growth inhibition [3]: 30%
extramedullary hematopoiesis in spleen (spleen of Fischer rats): did not show any sign of extramedullary hematopoiesis
MTD [4]: 100 mg/kg
decrease (myelosuppression) in hematopoiesis of sternum bone marrow [5]: 95-98%
rats died (Fischer rats [6]; Group 5, irinotecan 150 mg/kg i.v., day 8, 5 rats per group): One
animals died with severe diarrhea (Fischer rats [6]; Group 8, irinotecan 200 mg/kg i.v., day 7): One
rats in moribund condition with acute diarrhea (Fischer rats [6]; Group 8, irinotecan 200 mg/kg i.v., sacrificed before day 9): 4
rats died because of toxicity (Fischer rats [6]; irinotecan 150 mg/kg/d×3): 10%
rats died because of toxicity (Fischer rats [6]; irinotecan 200 mg/kg/d×3): Fifty
animals which survived treatment (Fischer rats [6]; irinotecan 200 mg/kg/d×3 alone or in combination with elsiglutide): 50%

O=c1[nH]cc(F)c(=O)[nH]1 [5-FU, 5-fluorouracil]
overall tumor growth inhibition [3]: 30%
MTD [4]: 100 mg/kg
